{"source": "patent EP0663826B1", "about": "“AMINO ACIDS CONTAINING PARENTERAL FORMULATIONS FOR THE TREATMENT OF HYPOTENSION AND RELATED PATHOLOGIES” (BOARD OF REGENTS THE UNIVERSITY OF TEXAS SYSTEM, priority 1991, dated 1993)", "key": {"[1]": {"tested_on": "endotoxin-induced shock in dogs", "assay": "Endotoxin-induced hypotension in dogs (with nitroglycerin and control dogs)", "format": "in vivo", "details": "Study 2: Nitroglycerin-treated dogs (n=3)", "protocol": "Animals: Studies were carried out on 12 conditioned mongrel dogs (9 males and 3 females) weighing 22-32 kg (avg=25.3 kg). Animal care was in accordance with the recommendations of the American Association for Accreditation of Laboratory Animal Care, and met all standards prescribed by the Guide for the Care and Use of Laboratory Animals (Guide for the Care and Use of Laboratory Animals (1978) Dept. of Health, Education and Welfare, Washington, D.C. (Publ. No. 78-23). Animal protocols were approved by The University of Texas Animal Welfare committee. The dogs were fasted overnight prior to the day of experimentation. They were anesthetized with sodium pentobarbital (25 mg/kg i.v.). Dogs were then endotracheally intubated and ventilated with a piston-driven respirator (Harvard instruments) using room air at a tidal volume of 15 ml/kg and at a rate of 12 to 14 breaths per minute, adjusted to achieve a normal arterial pH and pCO2 (Instrumentation Laboratories lL1302 pH/Blood Gas Analyzer). Catheters were placed percutaneously into the femoral and pulmonary arteries; In the latter, a flow-directed thermal-dilation catheter was used (Abbott Critical Care Systems).\nPhysiologic measurements: Mean SAP and heart rate were continuously monitored (Parametron 7048 Monitoring System, Roche) and stored on a magnetic disk using an analog-to-digital converter (Scientific Solutions, Inc.). Cardiac output (CO) was determined as the mean of six measurements by thermal-dilution. Systemic vascular resistance was calculated as (SAP X80)/CO and expressed as dynes-sec/cm^5 (kg/s·cm^4).\nProtocol: After the blood pressure and heart rate stabilized, endotoxin (40 µg/kg, in 10 ml of phosphate-buffered saline (PBS), pH 7.4) was infused i.v. over 2 minutes. This dose of endotoxin typically induces severe and often lethal cardiovascular collapse in the dog. Blood pressure was monitored, and when either SAP fell below 60 mm Hg or a stable nadir in systemic arterial pressure (SAP) was maintained for 10 minutes, L-NMA was administered (20 mg/kg in 5 ml of PBS i.v. over 1 min.). In most experiments, L-arginine (400 mg/kg in 20 ml PBS) was administered ten minutes later by i.v. infusion over 2 minutes. In control experiments, dogs without prior exposure to endotoxin received L-NMA alone. To simulate the hypotension observed in dogs receiving endotoxin, one group of dogs received a continuous i.v. infusion of nitroglycerin (2 mg/ml) at a rate adjusted to maintain the SAP at 60-70 mm Hg. Nitroglycerin-treated dogs then received L-NMA (20 mg/kg) and 20 minutes later L-arginine was administered ([…]).\nStatistics: Statistical significance was evaluated using Student's test and either a one-tailed or two-tailed analysis as appropriate for comparisons."}, "[2]": {"tested_on": "pithed rats", "assay": "Blood pressure response to phenylephrine in pithed rats without/with arginase", "format": "in vivo", "details": "for Blood Pressure Increase With Arginase Ave. ± S.D.: after arginase; for difference in pressor response between control and endotoxic animals: phenylephrine 6 µg/Kg", "protocol": "Animals were pithed as described in Example 1. Blood pressure measurements were obtained also as described in Example 1. Arginase was also prepared according to the method described in Example 1.\nBoth left and right jugular veins were cannulated for drug administration; and left jugular was used for bolus administration of phenylephrine and the right jugular vein was used for continuous infusion of arginase. All animals from both groups (Control and Endotoxin) received phenylephrine in sequential doses of 0.3, 1.0, 2.0, or 6.0 ug/Kg.\nEndotoxin (15 mg/kg body weight) was given by intravenous injection 6 hrs before the experiment began; arginase (300 I.U./Min. for 20 min.) was given intravenously to each rat after the \"Without Arginase\" measurements were made.\nFor the second, third and fourth rats, the blood pressure increments were 14, 32 and 9 before arginase, respectively, and 9, 20 and 10 after arginase, respectively."}, "[3]": {"details": "Study #1: Control Animals, phenylephrine 0.3 µg/Kg"}, "[4]": {"details": "Study #1: Control Animals, phenylephrine 1.0 µg/Kg"}, "[5]": {"details": "Study #1: Control Animals, phenylephrine 2.0 µg/Kg"}, "[6]": {"details": "Study #1: Control Animals, phenylephrine 6.0 µg/Kg"}, "[7]": {"details": "Study #2: Endotoxic Animals, phenylephrine 0.3 µg/Kg"}, "[8]": {"details": "Study #2: Endotoxic Animals, phenylephrine 1.0 µg/Kg"}, "[9]": {"details": "Study #2: Endotoxic Animals, phenylephrine 2.0 µg/Kg"}, "[10]": {"details": "Study #2: Endotoxic Animals, phenylephrine 6.0 µg/Kg"}}}
{"smiles": "O=[N+]([O-])OCC(CO[N+](=O)[O-])O[N+](=O)[O-]", "note": "[Nitroglycerin]", "values": [{"measurement": "Cardiac Output", "setting": "[1]; means ± S.E., baseline 3.14 ± 0.21", "value": "2.72 ± 0.27", "unit": "L/min"}, {"measurement": "Heart Rate", "setting": "[1]; means ± S.E., baseline 143.7 ± 12.1", "value": "137.3 ± 5.0", "unit": "beats/min"}, {"measurement": "Systemic Vascular Resistance", "setting": "[1]; means ± S.E., baseline 3294 ± 74", "value": "1924 ± 132", "unit": "dynes-sec/cm^5"}, {"measurement": "Systemic Arterial Pressure", "setting": "[1]; means ± S.E., continuous nitroglycerin (2 mg/ml) titrated to SAP 65 mm Hg, then L-NMA 20 mg/kg, then L-arginine, baseline 129.3 ± 10.2", "value": "64.7 ± 2.7", "unit": "mmHg"}, {"measurement": "Systemic Vascular Resistance", "setting": "[1]; value in brackets", "value": "1.924 ± 0.132", "unit": "Kg/s·cm^4"}]}
{"smiles": "CNC[C@H](O)c1cccc(O)c1", "note": "[Phenylephrine, phenylephrine]", "values": [{"measurement": "Blood Pressure Increase Without Arginase Ave. ± S.D.", "setting": "[2]; [3]", "value": "17.8 ± 5.0", "unit": "mm Hg"}, {"measurement": "Blood Pressure Increase With Arginase Ave. ± S.D.", "setting": "[2]; [3]", "value": "13.3 ± 2.5", "unit": "mm Hg"}, {"measurement": "Blood Pressure Increase Without Arginase Ave. ± S.D.", "setting": "[2]; [4]", "value": "31.3 ± 4.0", "unit": "mm Hg"}, {"measurement": "Blood Pressure Increase With Arginase Ave. ± S.D.", "setting": "[2]; [4]", "value": "22.5 ± 6.1", "unit": "mm Hg"}, {"measurement": "Blood Pressure Increase Without Arginase Ave. ± S.D.", "setting": "[2]; [5]", "value": "51.0 ± 6.6", "unit": "mm Hg"}, {"measurement": "Blood Pressure Increase With Arginase Ave. ± S.D.", "setting": "[2]; [5]", "value": "38.8 ± 9.1", "unit": "mm Hg"}, {"measurement": "Blood Pressure Increase Without Arginase Ave. ± S.D.", "setting": "[2]; [6]", "value": "93.0 ± 10.3", "unit": "mm Hg"}, {"measurement": "Blood Pressure Increase With Arginase Ave. ± S.D.", "setting": "[2]; [6]", "value": "79.8 ± 13.4", "unit": "mm Hg"}, {"measurement": "Blood Pressure Increase Without Arginase Ave. ± S.D.", "setting": "[2]; [7]", "value": "2.2 ± 0.7", "unit": "mm Hg"}, {"measurement": "Blood Pressure Increase With Arginase Ave. ± S.D.", "setting": "[2]; [7]", "value": "2.0 ± 0.6", "unit": "mm Hg"}, {"measurement": "Blood Pressure Increase Without Arginase Ave. ± S.D.", "setting": "[2]; [8]", "value": "7.0 ± 1.1", "unit": "mm Hg"}, {"measurement": "Blood Pressure Increase With Arginase Ave. ± S.D.", "setting": "[2]; [8]", "value": "9.0 ± 1.8", "unit": "mm Hg"}, {"measurement": "Blood Pressure Increase Without Arginase Ave. ± S.D.", "setting": "[2]; [9]", "value": "13.6 ± 2.6", "unit": "mm Hg"}, {"measurement": "Blood Pressure Increase With Arginase Ave. ± S.D.", "setting": "[2]; [9]", "value": "23.3 ± 5.3", "unit": "mm Hg"}, {"measurement": "Blood Pressure Increase Without Arginase Ave. ± S.D.", "setting": "[2]; [10]", "value": "33.7 ± 9.6", "unit": "mm Hg"}, {"measurement": "Blood Pressure Increase With Arginase Ave. ± S.D.", "setting": "[2]; [10]", "value": "48.5 ± 7.6", "unit": "mm Hg"}, {"measurement": "difference in pressor response between control and endotoxic animals", "setting": "[2]; animals given arginase", "value": 31.3, "unit": "mm Hg"}, {"measurement": "difference in pressor response between control and endotoxic animals", "setting": "[2]; animals not given arginase", "value": 59.3, "unit": "mm Hg"}]}
